Test results: patent US7109244B2, “Compositions and methods comprising long-chain, straight-chain 2-amino-3-hydroxyalkanes” (priority 1997, dated 2006)
Like-named read-outs stand apart in the source and are kept apart here.

Experiments:
[1] = test system: Chinese hamster ovary (CHO) cells; conditions: cited from earlier work
[2] = test system: HL-60 cells; conditions: cells treated with phorbol 12-myristate-13-acetate; cited from earlier work
[3] = test system: L1210 murine lymphocytic leukemia cells; assay: L1210 cytotoxicity assay (inhibition of growth); type: cell-based
Protocol: The morphological effect was usually measured 30–35 h after the start of the assay and again about 24 h later, while the cytotoxicity was determined when the number of cells in the controls reached approximately 8000, usually in 3 days after the assay was begun. It should be noted that the pointed cells were live cells and that they were counted as such for the cytotoxicity reading. […] All morphologically-changed cells were counted in the pointed cell percentage.
Cytotoxicity assays against L1210 murine lymphocytic leukemia cells were performed by dissolving the samples in methanol and/or hexane were applied to the dry assay wells and the solvent was allowed to evaporate. Cells (1000) were added in minimum essential medium (MEM, 1 ml) and incubated 37° C. Inhibition of growth was recorded as the estimated percentage of living cells in sample wells versus that in control wells.

[4] = test system: L1210 murine lymphocytic leukemia cells; assay: L1210 morphological change (pointed cells); type: cell-based; conditions: for % Pointed Cells 1st: 27 h
Protocol: Referring to FIG. 1, in the L1210 assay some of the cells changed from being spherical (FIG. 1A) to ovoid with long points approximately […] apart (FIG. 1B). Several other forms have also been observed in assays of these extracts, including cells with points not […] apart (FIG. 1C), cells with more than two points (FIG. 1D), cells with a bulge (FIG. 1E) and cells with a bulge replacing one of the points (FIG. 1F). However, the form with two sharp, opposing points was by far the predominant and characteristic one observed. This type of morphological change had not previously been observed during the screening of over 1000 marine extracts.
As discussed above, the spisulosines caused a distinct morphological change in L1210 leukemia cells, in addition to cytotoxicity. This bioactivity, which was recorded as the percentage of living cells in which altered morphology was observed, could be observed sometimes as early as 13 h after the start of the assay and reached a maximum at 50–60 h, after which it decreased. […] The morphological effect was usually measured 30–35 h after the start of the assay and again about 24 h later, while the cytotoxicity was determined when the number of cells in the controls reached approximately 8000, usually in 3 days after the assay was begun. It should be noted that the pointed cells were live cells and that they were counted as such for the cytotoxicity reading. Also, assays in which 100% cytotoxicity was recorded may still have contained live cells (<0.5%) which may or may not have been pointed. All morphologically-changed cells were counted in the pointed cell percentage.
Morphologically-changed cells (FIGS. 1A–1F) were counted as living cells when determining the percent inhibition of growth. Morphological changes were assessed throughout the assay period. The percentage of pointed cells was determined by counting the number of altered cells in approximately 60 living cells. This percentage varied with the length of time the assay had been running. It generally reached its maximum about 50 hours after the start of the assay, but pointed cells could be observed as early as 13 hours after the start of the assay and could usually still be seen when the percent growth inhibition was measured. The percentages of pointed cells were often counted both after about 35 and after 55 hours. The time that this measurement was made is indicated with the data.

[5] = test system: protein kinase C; conditions: competing with diacylglycerol for the binding site; cited from earlier work
[6] = test system: Nippostrongylus brasiliensis; conditions: cited from earlier work
[7] = test system: Gram-positive and Gram-negative bacteria and fungi; conditions: cited from earlier work
[8] = test system: Vero cells; assay: effect of LPA on the action of spisulosine 285 in Vero cells (Example D); type: cell-based
Excerpt: LPA is known to increase the level of stress fibers in cells by activation of the Rho protein. The effect of LPA on cells treated with spisulosine 285, and untreated cells was examined. […]

CCCCCCCCCCCCC/C=C/[C@@H](O)[C@@H](N)CO (relative stereo) [sphingosine, D-trans-erythro-sphingosine, reference compound]
cytotoxicity [1]: cytotoxic
differentiation of HL-60 cells [2]: inhibit the differentiation
L1210 cytotoxicity (in words) [3]: moderate cytotoxicity
% Inhibition ([3]; 0.1 μg/ml): 0%
% Inhibition ([3]; 0.5 μg/ml): 31%
% Inhibition ([3]; 1 μg/ml): 75%
% Inhibition ([3]; 5 μg/ml): 100%
L1210 morphological alteration / pointed cell activity (in words) [4]: no morphological effect
% Pointed cells ([4]; 0.1 μg/ml): 0%
% Pointed cells ([4]; 0.5 μg/ml): 0%
% Pointed cells ([4]; 1 μg/ml): 0%
% Pointed cells ([4]; 5 μg/ml): 0%
inhibition of protein kinase C [5]: potent inhibitor

CCCCCCCCCCCCCCCCCCN [Compound 131, stearylamine, reference compound]
cytotoxicity [1]: cytotoxic
L1210 cytotoxicity (in words) [3]: moderate cytotoxicity
inhibition at 0.1 µg/mL ([3]; Mus musculus, L1210, 0.1 μg/ml, read-out: % Inhibition): 0%
inhibition at […] ([3]; Mus musculus, L1210, 0.25 μg/ml, read-out: % Inhibition): 0%
inhibition at 0.5 µg/mL ([3]; Mus musculus, L1210, 0.5 μg/ml, read-out: % Inhibition): 0%
inhibition at 1 µg/mL ([3]; Mus musculus, L1210, 1 μg/ml, read-out: % Inhibition): 19%
inhibition at […] ([3]; Mus musculus, L1210, 2.5 μg/ml, read-out: % Inhibition): 96%
inhibition at 5 µg/mL ([3]; Mus musculus, L1210, 5 μg/ml, read-out: % Inhibition): 99%
L1210 morphological alteration / pointed cell activity (in words) [4]: no morphological effect
% Pointed cells ([4]; 0.1 μg/ml): 0%
% Pointed cells ([4]; 0.5 μg/ml): 0%
% Pointed cells ([4]; 1 μg/ml): 0%
% Pointed cells ([4]; 5 μg/ml): 0%

CCCCCCCCCCCCCCC[C@H](O)[C@H](C)N [Compound 154, (2S,3S)-2-amino-3-octadecanol]
inhibition at 0.1 µg/mL ([3]; Mus musculus, L1210, 0.1 μg/ml, read-out: % Inhibitiion): 0%
inhibition at […] ([3]; Mus musculus, L1210, 0.25 μg/ml, read-out: % Inhibitiion): 0%
inhibition at 0.5 µg/mL ([3]; Mus musculus, L1210, 0.5 μg/ml, read-out: % Inhibitiion): 0%
inhibition at 1 µg/mL ([3]; Mus musculus, L1210, 1 μg/ml, read-out: % Inhibitiion): 63%
inhibition at […] ([3]; Mus musculus, L1210, 2.5 μg/ml, read-out: % Inhibitiion): 100%
inhibition at 5 µg/mL ([3]; Mus musculus, L1210, 5 μg/ml, read-out: % Inhibitiion): 100%
% Pointed Cells 1st ([4]; 0.1 μg/ml): 0%
% Pointed Cells 1st ([4]; 0.5 μg/ml): 0%
% Pointed Cells 1st ([4]; 1 μg/ml): 0%
% Pointed Cells 1st ([4]; 5 μg/ml): 0%

CCCCCCCCCCCCC/C=C/[C@@H](O)[C@@H](N)COP(=O)(O)OCC[N+](C)(C)C [Compound 163, reference compound]
inhibition at 10 µg/mL ([3]; Mus musculus, L1210, 10 μg/ml): 38%
inhibition at 25 µg/mL ([3]; Mus musculus, L1210, 25 μg/ml): 50%
inhibition at 50 µg/mL ([3]; Mus musculus, L1210, 50 μg/ml): 88%
% Pointed cells ([4]; 10 μg/ml): 0%
% Pointed cells ([4]; 25 μg/ml): 0%
% Pointed cells ([4]; 50 μg/ml): 0%

CCCCCCCCCCCCCCC[C@@H](O)[C@@H](N)CO [Compound 164, dihydrosphingosine]
cytotoxicity [1]: did not affect the cytotoxicity

C=CCCCCCCCCCC(O)C(C)N (centres unmarked) [Xestaminol A]
antihelminthic activity [6]: antihelminthic activity
activity against bacteria and fungi [7]: weak activity

Lysophosphatidic acid [LPA]
effect of LPA added prior to spisulosine on morphology ([8]; 10 mM LPA 2 hours, then 0.5 mM spisulosine 285 for 18 hours): prevents the morphological change promoted by spisulosine
level of actin ([8]; 10 mM LPA, 2 hours): increasing the level of actin
